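Method: 48-hour compound exposure of cells in 96-well plates, five concentrations, linear interpolation of endpoints. At the GI50, growth is halved.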 Calls of active or inactive are those of the source. No stated cut-off is given here; in the data, active = GI50 up to about 1.1 µM and inactive = higher.
How the values were obtained:
Assay in all cases: NCI anticancer screen, dose series, 48 h
[1] = tested on: 786-0
[2] = tested on: A549
[3] = tested on: EKVX
[4] = tested on: HOP-92
[5] = tested on: IGROV-1
[6] = tested on: K562
[7] = tested on: MDA-MB-231
[8] = tested on: MOLT-4
[9] = tested on: Malme-3M
[10] = tested on: OVCAR-4
[11] = tested on: OVCAR-5
[12] = tested on: SK-MEL-5
[13] = tested on: SK-OV-3
[14] = tested on: SNB-19
[15] = tested on: SW-620
[16] = tested on: T47D
[17] = tested on: U-251
[18] = tested on: UO-31
[19] = tested on: RPMI-8226

Row | Compound | GI50 [1] | GI50 [2] | GI50 [3] | GI50 [4] | GI50 [5] | GI50 [6] | GI50 [7] | GI50 [8] | GI50 [9] | GI50 [10] | GI50 [11] | GI50 [12] | GI50 [13] | GI50 [14] | GI50 [15] | GI50 [16] | GI50 [17] | GI50 [18] | GI50 [19]
1 | COC(=O)[C@H]1COC(=O)N1 | > 100 µM (inactive) | > 100 µM (inactive) | > 100 µM (inactive) | > 100 µM (inactive) | > 100 µM (inactive) | > 100 µM (inactive) | > 100 µM (inactive) | > 100 µM (inactive) | > 100 µM (inactive) | > 100 µM (inactive) | > 100 µM (inactive) | > 100 µM (inactive) | > 100 µM (inactive) | > 100 µM (inactive) | > 100 µM (inactive) | > 100 µM (inactive) | > 100 µM (inactive) | > 100 µM (inactive) | 
2 | CC(Cl)CN1c2ccccc2Sc2ccc(Cl)cc21 (centres undefined) | > 10 µM (inactive) | > 10 µM (inactive) | > 10 µM (inactive) | > 10 µM (inactive) | > 10 µM (inactive) | > 10 µM (inactive) | > 10 µM (inactive) | > 10 µM (inactive) | > 10 µM (inactive) | > 10 µM (inactive) | > 10 µM (inactive) | > 10 µM (inactive) | > 10 µM (inactive) | > 10 µM (inactive) | > 10 µM (inactive) | > 10 µM (inactive) | > 10 µM (inactive) | > 10 µM (inactive) | > 10 µM (inactive)
3 | CC(C)C1CCC(=O)CC1CCCCC1CC(=O)CC1O[Si](C)(C)C(C)(C)C (centres undefined) | 3.89 µM (inactive) | 6.03 µM (inactive) | 15.7 µM (inactive) | 3.3 µM (inactive) | 2.84 µM (inactive) | 2.76 µM (inactive) | 14.6 µM (inactive) | 1.89 µM (inactive) | 6.76 µM (inactive) | 12.7 µM (inactive) | 11.1 µM (inactive) | 3.05 µM (inactive) | 11.9 µM (inactive) | 3.98 µM (inactive) | 4.91 µM (inactive) | 14.2 µM (inactive) | 2.32 µM (inactive) | 7.66 µM (inactive) | 1.95 µM (inactive)
4 | [BH3-][P+]1(CC[P@@+]([BH3-])(c2ccccc2)c2ccccc2OC)[C@@H](C)[C@@H](O)[C@H](O)[C@@H]1C (some centres undefined) | 27.2 µM (inactive) | 14.1 µM (inactive) | 12.4 µM (inactive) | 16.6 µM (inactive) | 17.3 µM (inactive) | 26.1 µM (inactive) | 16 µM (inactive) | 20.4 µM (inactive) | 11.2 µM (inactive) | 16.8 µM (inactive) | 18.1 µM (inactive) | 15.7 µM (inactive) | 22.8 µM (inactive) | 17 µM (inactive) | 16.9 µM (inactive) | 15.9 µM (inactive) | 16.9 µM (inactive) | 10.1 µM (inactive) | 23.4 µM (inactive)
5 | Nc1nc(Cl)cc(Nc2cc(Cl)cc(Cl)c2)n1 | 17.4 µM (inactive) | 24.8 µM (inactive) | 21.3 µM (inactive) | 21.5 µM (inactive) | 18.7 µM (inactive) | 30.8 µM (inactive) | 20 µM (inactive) | 22.3 µM (inactive) | 22.3 µM (inactive) | 21.7 µM (inactive) | 31.9 µM (inactive) | 19.8 µM (inactive) | 19.5 µM (inactive) | 23.4 µM (inactive) | 22.4 µM (inactive) | 37 µM (inactive) | 21.2 µM (inactive) | 19.6 µM (inactive) | 33 µM (inactive)
6 | O=c1c(C(c2cnc3ccccc3c2)c2c(O)oc3ccccc3c2=O)c(O)oc2ccccc12 | 44.5 µM (inactive) |  | 99.3 µM (inactive) | 20.2 µM (inactive) | > 100 µM (inactive) | 35.4 µM (inactive) | 92.7 µM (inactive) | 27.7 µM (inactive) | 35.2 µM (inactive) | 33.7 µM (inactive) |  | 57.8 µM (inactive) |  | 23.2 µM (inactive) | 29.6 µM (inactive) | > 100 µM (inactive) | 29 µM (inactive) | 29.4 µM (inactive) | 29 µM (inactive)
7 | CC(C)=CCC/C(C)=C/Cc1cc(/C=C/c2cc(O)c(CC=C(C)C)c(O)c2)cc(O)c1O [MAPPAIN] | 4.6 µM (inactive) | 4.72 µM (inactive) | 2.96 µM (inactive) | 3.93 µM (inactive) | 1.76 µM (inactive) | 2.49 µM (inactive) | 11.2 µM (inactive) | 1.93 µM (inactive) | 6.38 µM (inactive) | 1.94 µM (inactive) | 4.36 µM (inactive) | 2.12 µM (inactive) | 8.87 µM (inactive) | 4.5 µM (inactive) | 3.54 µM (inactive) | 1.84 µM (inactive) | 2.18 µM (inactive) | 1.29 µM (inactive) | 0.506 µM (active)
